Values quoted from earlier work in patent US20080063637A1, “Regulation of oncogenesis by Akt-specific isoforms” (The Trustees of Tufts College, priority 2006, published 2008).

Tests used:
[1] = tested on: corresponding Akt isoforms (phosphorylation by PDK1); conditions: Barnett et al. 2005
[2] = tested on: LNCap prostate cancer cells; conditions: Barnett et al. 2005

Which “phosphorylation and activation of the corresponding Akt isoforms by PDK1” value [1] does the source give for `O=c1[nH]c2ccccc2n1C1CCN(Cc2ccc(-c3nc4cc5nc[nH]c5cc4nc3-c3ccccc3)cc2)CC1` [Akt-I-1,2] here?
The value was “blocked”.

And the TRAIL-induced apoptosis [2]?
Its TRAIL-induced apoptosis is “promote”.
